# Patent EP4796530A1 (Biocells (Beijing) Biotech Co., Ltd., priority 2023, dated 2025)
# Legend:
# [1] = biological target: T1, NLRP3 (Mus musculus, UniProt Q8R4B8); assay: MSU-induced mouse peritonitis model: IL-1β in ascites; format: in vivo, C57BL/6J female mice; set-up: tissue National Institutes for Food and Drug Control; host or cells: C57BL/6J mice in vivo (serum IL-1β in A7, ascites IL-1β in A8); conditions: oral gavage; LPS 2 h later, MSU after another 2 h, ascites 30 min later
# Experimental: Intraperitoneal injection of LPS and monosodium urate crystals (MSU) in mice can induce the activation of NLRP3 and release of large amounts of IL-1β. […] LPS was purchased from Sigma, Cat. No. L2654. MSU was purchased from Bide Pharmatech Co., Ltd., Cat. No. BD367417. C57BL/6J female mice aged 8 weeks were purchased from National Institutes for Food and Drug Control.
# The mice were administered the example compounds via oral gavage. […] Ascites was collected 30 min later, and then IL-1β protein detection was performed on the ascites.
# Experimental groups: a model group, and an example compound dosing group.
# [2] = biological target: T1, NLRP3; assay: LPS-induced sepsis model in mice: serum IL-1β and survival rate; format: in vivo, C57BL/6 mice; set-up: tissue National Institutes for Food and Drug Control; host or cells: C57BL/6J mice in vivo (serum IL-1β in A7, ascites IL-1β in A8); conditions: 30 mg/kg intraperitoneally 1 h before 20 mg/kg LPS
# Experimental: Intraperitoneal injection of 20 mg/kg LPS can induce a septic state in C57BL/6 mice and cause a significant increase in serum IL-1β after injection. Example compounds were intraperitoneally injected preemptively to study the effects on IL-1β increase and mouse survival rate. LPS was purchased from Sigma, Cat. No. L2630; and C57BL/6J male mice aged 6-8 weeks were purchased from National Institutes for Food and Drug Control.
# Experimental groups: a sham group, a model group, and an example compound dosing group.
# 30 mg/kg of example compounds were injected intraperitoneally. 1 h later, 20 mg/kg LPS was injected intraperitoneally into the model group and the example compound dosing group for modeling, and the control solvent was injected into the sham group. Serum samples were collected from a batch of mice at 2.5 h and 4 h after modeling, and the levels of IL-1β were analyzed. For another batch of mice, the survival rate of the mice was calculated after modeling.
# T1 sequence (Q8R4B8 whole entry): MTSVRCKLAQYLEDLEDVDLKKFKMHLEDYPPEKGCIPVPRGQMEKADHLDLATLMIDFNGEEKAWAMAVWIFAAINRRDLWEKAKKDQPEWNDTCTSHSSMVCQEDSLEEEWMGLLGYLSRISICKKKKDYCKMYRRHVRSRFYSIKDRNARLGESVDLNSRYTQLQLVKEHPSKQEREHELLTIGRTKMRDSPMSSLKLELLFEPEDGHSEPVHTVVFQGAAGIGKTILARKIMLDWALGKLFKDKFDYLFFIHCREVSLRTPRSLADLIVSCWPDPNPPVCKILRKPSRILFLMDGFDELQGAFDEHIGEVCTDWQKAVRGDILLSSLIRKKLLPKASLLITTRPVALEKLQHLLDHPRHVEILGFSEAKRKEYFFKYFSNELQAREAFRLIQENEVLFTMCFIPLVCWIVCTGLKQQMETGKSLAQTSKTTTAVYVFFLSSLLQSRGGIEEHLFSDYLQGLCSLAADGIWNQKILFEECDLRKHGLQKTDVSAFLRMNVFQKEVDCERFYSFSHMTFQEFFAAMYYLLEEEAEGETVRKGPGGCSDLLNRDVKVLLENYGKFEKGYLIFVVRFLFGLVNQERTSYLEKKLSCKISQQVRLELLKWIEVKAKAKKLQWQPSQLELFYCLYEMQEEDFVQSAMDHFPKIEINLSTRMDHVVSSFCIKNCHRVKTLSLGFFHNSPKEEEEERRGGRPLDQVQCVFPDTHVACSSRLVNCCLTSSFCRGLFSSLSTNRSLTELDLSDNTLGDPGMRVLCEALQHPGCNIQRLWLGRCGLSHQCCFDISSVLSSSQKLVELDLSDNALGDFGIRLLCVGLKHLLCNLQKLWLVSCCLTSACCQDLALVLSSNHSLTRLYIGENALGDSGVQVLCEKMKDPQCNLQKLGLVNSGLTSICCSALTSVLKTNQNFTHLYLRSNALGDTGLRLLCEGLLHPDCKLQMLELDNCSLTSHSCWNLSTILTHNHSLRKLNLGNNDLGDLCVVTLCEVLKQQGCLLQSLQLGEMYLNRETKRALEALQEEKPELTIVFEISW
smiles,measurement,setting,value
"CN(C)Cc1cccc(S(=O)(=O)NC(=O)Nc2c3c(cc4c2CCC4)CCC3)c1N [Example 19, 2-amino-3-((dimethylamino)methyl)-N-((1,2,3,5,6,7-hexahydro-s-indacen-4-yl)carbamoyl)benzenesulfonamide]",level of IL-1β in ascites compared with the model group,[1],significantly inhibited
same,mouse survival rate compared with the model group,[2],significantly improved
same,survival rate compared with MCC950,[2],significantly further improved
same,IL-1β level in serum compared with the model group,[2]; 2.5 h after modeling,significant differences
same,IL-1β level in serum compared with the model group,[2]; 4 h after modeling,significant differences
